Data taken from patent US4474800A, “Epoxysuccinyl amino acid derivatives” (Taisho Pharmaceutical Co., Ltd., priority 1980, dated 1984).

How the values were obtained:
[1] = biological target: T1, CANP prepared from a muscle of hereditary muscular dystrophy chicken (Gallus gallus, UniProt P00789); experiment: CANP inhibitory activity (method of Ishiura et al.); assay type: biochemical; conditions: 50% inhibition in molar ratio to the enzyme
T1 construct: from tissue; host or cells: muscle of hereditary muscular dystrophy chicken
T1 sequence (P00789 1-705): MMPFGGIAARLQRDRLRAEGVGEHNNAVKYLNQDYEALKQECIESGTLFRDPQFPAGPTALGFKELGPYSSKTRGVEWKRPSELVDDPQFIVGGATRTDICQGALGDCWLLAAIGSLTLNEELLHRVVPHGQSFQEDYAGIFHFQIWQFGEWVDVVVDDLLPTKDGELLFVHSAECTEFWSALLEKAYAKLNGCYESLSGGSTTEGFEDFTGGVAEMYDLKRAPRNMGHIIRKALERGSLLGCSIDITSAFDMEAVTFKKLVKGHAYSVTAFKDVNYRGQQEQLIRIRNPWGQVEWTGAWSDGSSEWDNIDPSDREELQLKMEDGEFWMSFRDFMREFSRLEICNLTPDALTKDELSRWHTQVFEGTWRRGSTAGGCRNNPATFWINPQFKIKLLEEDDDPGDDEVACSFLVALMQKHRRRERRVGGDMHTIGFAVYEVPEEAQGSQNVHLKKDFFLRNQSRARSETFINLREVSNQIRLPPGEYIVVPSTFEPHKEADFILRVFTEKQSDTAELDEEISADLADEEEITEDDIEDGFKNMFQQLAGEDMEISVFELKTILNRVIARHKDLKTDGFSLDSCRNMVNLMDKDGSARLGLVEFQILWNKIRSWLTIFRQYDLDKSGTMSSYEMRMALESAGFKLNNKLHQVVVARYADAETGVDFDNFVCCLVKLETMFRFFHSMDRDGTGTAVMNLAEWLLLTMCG
Procedure: Their muscular dystrophy inhibitory activity was assayed by the method of Ishiura et al., [J. of Biochem., 84, 225 (1978)] using CANP prepared from a muscle of hereditary muscular dystrophy chicken, and the resulting value for 50% inhibition in the molar ratios for the enzyme expressed as ID50 (mole/mole) is shown in Table 1 below.

[2] = Concentration in rat plasma after subcutaneous administration; assay type: in vivo; conditions: sc, rats, 50 mg/kg, an hour after administration
Procedure: The compounds of the present invention are better absorbed by the subcutaneous route in mammals such as rats or rabbits, as compared with the epoxysuccinic acid derivatives of the German Patent Laid Open Application described above and Chemical Abstracts, 87, 68129a (1977). To determine absorption, these compounds were administered subcutaneously to rats at a dose of 50 mg/kg, and the concentration of the test compound in rat plasma at an hour after the administration is shown in following Table 1.

[3] = biological target: T2, papain (Carica papaya, UniProt P00784); experiment: Papain inhibitory activity (method of K. Hanada et al.); assay type: biochemical; conditions: papain 80 μg/ml, Sigma, twice crystallized
T2 construct: purchased Sigma Chem. Co
T2 sequence (P00784 134-345): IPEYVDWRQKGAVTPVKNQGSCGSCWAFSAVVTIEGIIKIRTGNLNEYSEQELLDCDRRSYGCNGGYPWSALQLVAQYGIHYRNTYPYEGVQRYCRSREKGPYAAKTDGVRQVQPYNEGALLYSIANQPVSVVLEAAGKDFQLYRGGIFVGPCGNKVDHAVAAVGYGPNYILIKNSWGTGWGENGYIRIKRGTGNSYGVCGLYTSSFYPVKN
Procedure: Papain inhibitory activity of the compounds of the present invention was assayed by the method of K. Hanada et al. [Agric. Biol. Chem., 42, (3) 523 (1978)] using papain (80 μg/ml, Sigma Chem. Co.) after twice crystallization.

CC(=O)NCCCCNC(=O)[C@H](CC(C)C)NC(=O)C1OC1C(=O)OCc1ccccc1 (mixture of isomers) [Compound 8, N-[N-(DL-3-trans-benzyloxycarbonyloxirane-2-carbonyl)-L-leucyl]-N'-acetyl-1,4-diaminobutane]
CANP Inhibitory Activity ID50 (mole/mole) [1]: 100 mole/mole | concentration at 1 h [2]: 1800 ng/mL | Papain inhibitory activity ID50 (amount of inhibitor for 50% inhibition) [3]: 0.123 µg

CC(C)C[C@H](NC(=O)C1OC1C(=O)OCc1ccccc1)C(=O)NCCCCCNC(=O)OCc1ccccc1 (mixture of isomers) [Compound 2, N-[N-(DL-3-trans-benzyloxycarbonyloxirane-2-carbonyl)-L-leucyl]-N'-benzyloxycarbonyl-1,5-diaminopentane]
CANP Inhibitory Activity ID50 (mole/mole) [1]: 121 mole/mole | concentration at 1 h [2]: 1500 ng/mL | Papain inhibitory activity ID50 (amount of inhibitor for 50% inhibition) [3]: 0.481 µg

CC(C)[C@H](NC(=O)C1OC1C(=O)OCc1ccccc1)C(=O)NCCCCNC(=O)OCc1ccccc1 (mixture of isomers) [Compound 4, N-[N-(DL-3-trans-benzyloxycarbonyloxirane-2-carbonyl)-L-valyl]-N'-benzyloxycarbonyl-1,4-diaminobutane]
CANP Inhibitory Activity ID50 (mole/mole) [1]: 113 mole/mole | concentration at 1 h [2]: 1200 ng/mL | Papain inhibitory activity ID50 (amount of inhibitor for 50% inhibition) [3]: 0.436 µg

CCOC(=O)[C@H]1O[C@@H]1C(=O)O (relative stereo) [A, Ethyl hydrogen epoxysuccinate, reference compound]
CANP Inhibitory Activity ID50 (mole/mole) [1]: 5,400 mole/mole

CC(C)C[C@H](NC(=O)C1OC1C(=O)OCc1ccccc1)C(=O)NCCCCNC(=O)c1ccccc1 (mixture of isomers) [Compound 9, N-[N-(DL-3-trans-benzyloxycarbonyloxirane-2-carbonyl)-L-leucyl]-N'-benzoyl-1,4-diaminobutane]
CANP Inhibitory Activity ID50 (mole/mole) [1]: 89 mole/mole | concentration at 1 h [2]: 1300 ng/mL | Papain inhibitory activity ID50 (amount of inhibitor for 50% inhibition) [3]: 0.181 µg

CC(C)C[C@H](NC(=O)C1OC1C(=O)OC1CCCCC1)C(=O)NCCCCNC(=O)OCc1ccccc1 (mixture of isomers) [Compound 6, N-[N-(DL-3-trans-cyclohexyloxycarbonyloxirane-2-carbonyl)-L-leucyl]-N'-benzyloxycarbonyl-1,4-diaminobutane]
CANP Inhibitory Activity ID50 (mole/mole) [1]: 75 mole/mole | concentration at 1 h [2]: 1500 ng/mL | Papain inhibitory activity ID50 (amount of inhibitor for 50% inhibition) [3]: 0.142 µg

CC[C@H](C)[C@H](NC(=O)C1OC1C(=O)OCc1ccccc1)C(=O)NCCCCNC(=O)OCc1ccccc1 (mixture of isomers) [Compound 5, N-[N-(DL-3-benzyloxycarbonyloxirane-2-carbonyl)-L-isoleucyl]-N'-benzyloxycarbonyl-1,4-diaminobutane]
CANP Inhibitory Activity ID50 (mole/mole) [1]: 92 mole/mole | concentration at 1 h [2]: 1400 ng/mL | Papain inhibitory activity ID50 (amount of inhibitor for 50% inhibition) [3]: 0.323 µg

CC(C)C[C@H](NC(=O)C1OC1C(=O)OCc1ccccc1)C(=O)NCCCCCCCNC(=O)OCc1ccccc1 (mixture of isomers) [Compound 1, N-[N-(DL-3-trans-benzyloxycarbonyloxirane-2-carbonyl)-L-leucyl]-N'-benzyloxycarbonyl-1,7-diaminoheptane]
Papain inhibitory activity ID50 (amount of inhibitor for 50% inhibition) [3]: 0.302 µg

CC(C)C[C@H](NC(=O)C1OC1C(=O)O)C(=O)O (stereo partly drawn) [E, N--(3carboxyoxirane-2-carbonyl)-L-leucine, reference compound]
CANP Inhibitory Activity ID50 (mole/mole) [1]: 4,600 mole/mole

CC(C)C[C@H](NC(=O)C1OC1C(=O)OC1CCCC1)C(=O)NCCCCNC(=O)OCc1ccccc1 (mixture of isomers) [Compound 7, N-[N-(DL-3-trans-cyclopentyloxycarbonyloxirane-2-carbonyl)-L-leucyl]-N'-benzyloxycarbonyl-1,4-diaminobutane]
Papain inhibitory activity ID50 (amount of inhibitor for 50% inhibition) [3]: 0.164 µg

CC(C)C[C@H](NC(=O)C1OC1C(=O)O)C(=O)NCCCCNC(=O)OCc1ccccc1 (mixture of isomers) [Compound 11, N-[N-(DL-3-trans-carboxyoxirane-2-carbonyl)-L-leucyl]-N'-benzyloxycarbonyl-1,4-diaminobutane]
CANP Inhibitory Activity ID50 (mole/mole) [1]: 19 mole/mole | concentration at 1 h [2]: 13000 ng/mL | Papain inhibitory activity ID50 (amount of inhibitor for 50% inhibition) [3]: 0.118 µg

CC(C)C[C@H](NC(=O)C1OC1C(=O)O)C(=O)NCCCCN (mixture of isomers) [Compound 12, N-[N-(DL-3-trans-carboxyoxirane-2-carbonyl)-L-leucyl]-1,4-diaminobutane]
CANP Inhibitory Activity ID50 (mole/mole) [1]: 55 mole/mole | concentration at 1 h [2]: 25000 ng/mL | Papain inhibitory activity ID50 (amount of inhibitor for 50% inhibition) [3]: 0.106 µg

O=C(O)[C@H]1O[C@@H]1C(=O)OCc1ccccc1 (relative stereo) [B, Benzyl hydrogen epoxysuccinate, reference compound]
CANP Inhibitory Activity ID50 (mole/mole) [1]: 410 mole/mole

CC(C)C[C@H](NC(=O)C1OC1C(=O)OCc1ccccc1)C(=O)NCCNC(=O)OCc1ccccc1 (mixture of isomers) [Compound 3, N-[N-(DL-3-trans-benzyloxycarbonyloxirane-2-carbonyl)-L-leucyl]-N'-benzyloxycarbonyl-1,2-diaminoethane]
Papain inhibitory activity ID50 (amount of inhibitor for 50% inhibition) [3]: 0.203 µg

CCOC(=O)C1OC1C(=O)N[C@@H](CC(C)C)C(=O)OCc1ccccc1 (stereo partly drawn) [C, N--(3ethoxy-carbonyloxirane-2-carbonyl)-L-leucine benzyl ester, reference compound]
CANP Inhibitory Activity ID50 (mole/mole) [1]: 580 mole/mole

CC(C)C[C@H](NC(=O)C1OC1C(=O)OCc1ccccc1)C(=O)NCCCCNC(=O)OCc1ccccc1 (mixture of isomers) [Compound 10, N-[N-(DL-3-trans-benzyloxycarbonyloxirane-2-carbonyl)-L-leucyl]-N'-benzyloxycarbonyl-1,4-diaminobutane]
CANP Inhibitory Activity ID50 (mole/mole) [1]: 78 mole/mole | concentration at 1 h [2]: 1600 ng/mL | Papain inhibitory activity ID50 (amount of inhibitor for 50% inhibition) [3]: 0.260 µg
